According to article PMC10601436 (ACS Omega, 2023):
pIC50: −log10 of the molar value. Peptide text beside a SMILES is read from it.

Target: hDPP-IV (Homo sapiens, UniProt P27487)
Experiment: DPP-IV inhibitory assay
Type: biochemical

Chain of hDPP-IV (P27487 whole entry): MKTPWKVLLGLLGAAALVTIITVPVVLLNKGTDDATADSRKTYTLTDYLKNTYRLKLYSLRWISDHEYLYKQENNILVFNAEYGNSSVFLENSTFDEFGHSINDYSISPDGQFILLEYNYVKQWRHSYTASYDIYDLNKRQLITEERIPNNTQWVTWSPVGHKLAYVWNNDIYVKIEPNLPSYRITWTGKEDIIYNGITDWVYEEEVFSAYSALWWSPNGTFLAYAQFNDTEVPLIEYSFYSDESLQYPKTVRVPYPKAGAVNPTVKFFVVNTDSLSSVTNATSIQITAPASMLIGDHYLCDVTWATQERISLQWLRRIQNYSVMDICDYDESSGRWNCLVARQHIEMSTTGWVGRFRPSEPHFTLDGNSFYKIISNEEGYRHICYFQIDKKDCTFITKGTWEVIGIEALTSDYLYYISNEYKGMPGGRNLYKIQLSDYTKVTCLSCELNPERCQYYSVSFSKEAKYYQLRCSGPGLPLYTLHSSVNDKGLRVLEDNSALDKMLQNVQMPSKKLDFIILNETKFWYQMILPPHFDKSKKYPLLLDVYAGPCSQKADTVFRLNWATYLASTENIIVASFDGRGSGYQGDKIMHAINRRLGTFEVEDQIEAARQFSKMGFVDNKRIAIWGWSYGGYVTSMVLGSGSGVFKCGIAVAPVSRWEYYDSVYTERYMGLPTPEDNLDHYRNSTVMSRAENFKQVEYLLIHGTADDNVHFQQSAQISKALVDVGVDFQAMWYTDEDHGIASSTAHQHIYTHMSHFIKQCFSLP

| Structure (SMILES) | pIC50 |
| --- | --- |
| CC(C)C[C@H](NC(=O)[C@H](C)NC(=O)[C@@H](N)Cc1c[nH]c2ccccc12)C(=O)O [WAL] (H-Trp-Ala-Leu-OH) | 3.58 |
| N[C@@H](Cc1c[nH]c2ccccc12)C(=O)N1CCC[C@H]1C(=O)N[C@@H](Cc1ccccc1)C(=O)O [WPF] (H-Trp-Pro-Phe-OH) | 3.54 |
| C[C@H](NC(=O)[C@@H]1CCCN1C(=O)[C@@H](N)Cc1c[nH]c2ccccc12)C(=O)O [WPA] (H-Trp-Pro-Ala-OH) | 3.69 |
| C[C@H](NC(=O)[C@@H](N)Cc1c[nH]c2ccccc12)C(=O)N[C@@H](CC(N)=O)C(=O)O [WAN] (H-Trp-Ala-Asn-OH) | 3.52 |
| CC(C)[C@H](N)C(=O)N1CCC[C@H]1C(=O)N[C@H](C(=O)N1CCC[C@H]1C(=O)N[C@@H](CS)C(=O)O)C(C)C [VPVPC] (H-VPVPC-OH) | 4.26 |
| CC(C)[C@H](N)C(=O)N1CCC[C@H]1C(=O)N[C@H](C(=O)N1CCC[C@H]1C(=O)N[C@@H](Cc1c[nH]cn1)C(=O)O)C(C)C [VPVPH] (H-VPVPH-OH) | 4.29 |

The remaining lines, values ahead:

| pIC50 | Structure (SMILES) |
| --- | --- |
| 3.52 | N[C@@H](Cc1c[nH]c2ccccc12)C(=O)N1CCC[C@H]1C(=O)N1CCC[C@H]1C(=O)O [WPP] (H-Trp-Pro-Pro-OH) |
| 3.40 | CC(C)C[C@H](NC(=O)[C@@H](NC(=O)[C@@H](N)Cc1c[nH]c2ccccc12)C(C)C)C(=O)O [WVL] (H-Trp-Val-Leu-OH) |
| 3.59 | CC(C)[C@H](NC(=O)[C@@H](N)Cc1c[nH]c2ccccc12)C(=O)N[C@@H](Cc1c[nH]cn1)C(=O)O [WVH] (H-Trp-Val-His-OH) |
| 3.22 | N=C(N)NCCC[C@H](NC(=O)[C@@H](N)Cc1c[nH]c2ccccc12)C(=O)N[C@@H](Cc1c[nH]c2ccccc12)C(=O)O [WRW] (H-Trp-Arg-Trp-OH) |
| 3.73 | CC(C)[C@H](NC(=O)[C@@H](N)Cc1c[nH]c2ccccc12)C(=O)N[C@@H](Cc1ccccc1)C(=O)O [WVF] (H-Trp-Val-Phe-OH) |
| 3.50 | N[C@@H](Cc1c[nH]c2ccccc12)C(=O)N1CCC[C@H]1C(=O)N[C@@H](Cc1c[nH]cn1)C(=O)O [WPH] (H-Trp-Pro-His-OH) |
| 3.53 | N=C(N)NCCC[C@H](NC(=O)[C@@H](N)Cc1c[nH]c2ccccc12)C(=O)N[C@@H](Cc1ccc(O)cc1)C(=O)O [WRY] (H-Trp-Arg-Tyr-OH) |
